“And” between values parts separate entries of the source, which are not always exact repeats. Equal entries are not always repeated. “Also recorded” adds a separate entry of the source.
Tests used:
caspase-3 = experiment: Caspase-3 activity (CaspACE Assay System); assay type: cell-based, human
Procedure: Cells were supplemented with β-carotene for 2 days and prior to UVA irradiation (270 kJ/m^2). Caspase-3 activity was determined at 5 hours after irradiation. Values are mean±standard error of an experiment with four replicates.
Caspase-3 activity 5 hours after UVA irradiation was quantified in five separate experiments using the CaspACE™ Assay System (Promega/Catalys, Switzerland).

HaCaT cells [1] = experiment: TaqMan QRT-PCR of key genes; assay type: cell-based, human
Procedure: Cells were supplemented with β-carotene for 2 days prior to UVA irradiation (270 kJ/m^2) either in normal PBS or D2O-PBS. Gene expression 5 hours after irradiation was determined by quantitative real time polymerase chain reaction. (“QRT-PCR”). Values are geometric mean±standard error of three experiments.
Key gene regulation was confirmed in three independent cell irradiation experiments using TaqMan® QRT-PCR as described (Wertz, 2004). In these experiments, cells were pretreated with 0.5, 1.5, or 3 μM β-carotene, to analyze for dose-dependent β-carotene effects. In addition, cells were irradiated either in D2O-containing PBS or in H2O-containing PBS, to analyze for the ^1O2 inducibility of genes.

HaCaT cells [2] = settings: cited from earlier work
[3] = test system: HaCaT human keratinocytes; experiment: Affymetrix GeneChip microarray, gene regulation by β-carotene and/or UVA; assay type: cell-based
Procedure: UVA exposure is thought to cause skin aging mainly by singlet oxygen (^1O2)-dependent pathways. Using microarray hybridization the effect of pretreatment with the ^1O2 quencher β-carotene (1.5 μM) on prevention of UVA-induced gene regulation in HaCaT human keratinocytes was explored.
The cell culture experiments were carried out as described (Wertz, 2004). Briefly, a subclone of passage 65 HaCaT keratinocytes, selected for differentiation capacity, was used at passages 16 to 23 after subcloning. 2×10^5 cells were seeded per 60 millimeter dish. Starting the following day, the cells were pretreated for 2 days with β-carotene at 1.5 μM, a typical concentration in human plasma after moderate dietary supplementation (Thurmann, 2002).
(§1) β-carotene-containing medium was prepared as follows. Fresh all-E-β-carotene (DSM Nutritional Products, Kaiseraugst, Switzerland) stock solution in THF (containing 0.025% BHT; Fluka Chemie AG, Switzerland) was diluted 1:2 with ethanol and added to cell culture medium to a final concentration of 1.5 μM β-carotene. The solvent concentration in the medium was 0.5% for all treatments. β-carotene-containing medium was prepared fresh for the daily medium changes.
On day 3 of the experiment, the cells were irradiated with a Hönle sun lamp Sol 500 (270 kJ/m^2; Dr. Hönle, Germany).
Five independent, factorially designed cell irradiation experiments were analyzed by microarray hybridization. For each experiment, one chip was hybridized per treatment condition. GeneChip® analysis was done as described in Siler, 2004, which is incorporated by reference as if recited in full herein. Gene regulation by β-carotene and/or UVA was calculated relative to placebo.
Changes in gene expression were included in further analysis only if the change factor was ≧0.5 or ≦−0.5, and if unpaired t-tests yielded p values ≦0.05. Upregulations by a change factor of ≧0.5 are labeled bold, downregulations by a change factor of ≦−0.5 are labeled bold italics. (Table 1.) To identify the pathways affected by the treatments functional information on the genes was retrieved from public literature databases.

[4] = cited from earlier work
[5] = β-carotene supplementation, rodents (e.g. Mathews-Roth, 1982); cited from earlier work
[6] = β-carotene concentration in culture medium during incubation; assay type: physicochemical; settings: during the 24 hours of incubation, irrespective of the presence of cells
Procedure: as §1

[7] = UVA 270 kJ/m^2, 5 hours after irradiation
[8] = UVA 270 kJ/m^2 after 1.5 μM 2 days, vs placebo
[9] = unirradiated, 1.5 μM 2 days, vs placebo

In the case of `CC1=C(/C=C/C(C)=C/C=C/C(C)=C/C=C/C=C(C)/C=C/C=C(C)/C=C/C2=C(C)CCCC2(C)C)C(C)(C)CCC1` [β-Carotene, all-E-β-carotene], the “caspase-3 activity / apoptosis” value (caspase-3; unirradiated cells, β-carotene alone) is reported as “not sufficient to induce apoptosis; also recorded: Neither UVA nor β-carotene alone activated caspase-3”, the caspase-3 activity (caspase-3; β-carotene 2 days then UVA 270 kJ/m^2, 5 hours after irradiation) is reported as “dose-dependent induction of caspase-3 activity” and the “UVA-induced GADD34 transcription (QRT-PCR)” value (HaCaT cells [1]; [7]) is reported as “enhancement”. The “UVA-induced GADD153 transcription (QRT-PCR)” value (HaCaT cells [1]; [7]) was “enhancement”, the “MMP-10 induction by UVA/D2O” value (HaCaT cells [1]; UVA/D2O) was “dose-dependently inhibited” and the “integrinα6 transcription (QRT-PCR)” value (HaCaT cells [1]; irradiated and unirradiated HaCaT cells, 5 hours after irradiation) was “confirmed downregulation; also recorded: inhibition”. For the same molecule, the “UVA induction of MMP-3” value (HaCaT cells [2]; (Wertz, 2004)) was “downregulated”, the “basal and 1O2-induced expression of MMP-1” value (HaCaT cells [2]; (Wertz, 2004)) was “reduced” and the “basal MMP-1 expression” value (HaCaT cells [2]; unirradiated (Wertz, 2004)) was “mildly reduces”. For the same molecule, the “basal expression of MMP-10, QRT-PCR in independent experiments” value (HaCaT cells [2]; unirradiated (Wertz, 2004)) was “confirmed”, the “BPAG1; bullous pemphigoid antigen (M69225) change factor” value [3, 8] was “Downregulation” and the “C-FOS (V01512) change factor” value [3, 8] was 1.36. For the same molecule, the “ERF-2 (X78992) change factor” value [3, 8] was “enhanced”, the “GADD34 (U83981) change factor” value [3, 8] was “enhanced” and the “GADD153 (S62138) change factor” value [3, 8] was “upregulation; also recorded: enhanced”. The “IGF-BP 3; insulin-like growth factor-binding protein-3 gene (M35878) change factor” value [3, 8] was 1.73, the “IL6; Interleukin 6; IFNβα2a (X04430) change factor” value [3, 8] was “enhanced” and the “ILK; integrin-linked kinase (U40282) change factor” value [3, 8] was “Downregulation”. The “JUND (X56681) change factor” value [3, 8] was 1.83 and 1.66, the “KLF4; EZF (epithelial Zn finger) (U70663) change factor” value [3, 8] was “upregulation” and the “Lekti (AJ228139) change factor” value [3, 8] was “upregulated”. For the same molecule, the “MMP10 (X07820) change factor” value [3, 8] was “inhibited”, the “PAR-2; proteinase activated receptor-2 (U34038) change factor” value [3, 8] was 1.34 and the “TDAG51; PQ-rich protein; PHLDA1 (Z50194) change factor” value [3, 8] was “enhanced”. For the same molecule, the “TRIP14; ′2-5′ oligoadenylate synthetase (AJ225089) change factor” value [3, 8] was 0.67, the “c-myc (V00568) change factor” value [3, 8] was 2.45 and the “connexin 31 (AF099730) change factor” value [3, 8] was “upregulation”. The “connexin 45 (U03493) change factor” value [3, 8] was “Downregulation”, the “integrin α6 (X53586) change factor” value [3, 8] was “Downregulation” and the “serpinB1 (M93056) change factor” value [3, 8] was “upregulated”. The “number of genes regulated by co-treatment with UVA radiation and β-carotene” value ([3]; UVA + β-carotene) was 1142 genes, the “UVA induction of PAR-2” value ([3]; UVA-irradiated keratinocytes) was “further increased” and the “UVA upregulation of IFNα/Iβ targets” value ([3]; UVA-irradiated keratinocytes) was “reduced”. For the same molecule, the “UVA upregulation of VEGF” value ([3]; UVA-irradiated keratinocytes) was “reduced”, the desmocollins gene regulation ([3]; UVA/β-carotene treatment) was “Downregulation” and the TIMP-1 gene regulation ([3]; all treatments) was “not influenced”. For the same molecule, the “UVA-regulated genes for which β-carotene enhanced the UVA effect” value ([3]; of 568 UVA-regulated genes) was 180 genes, the “UVA-regulated genes for which β-carotene had no effect” value ([3]; of 568 UVA-regulated genes) was 245 genes and the “UVA-regulated genes for which β-carotene reduced the UVA-induced effect” value ([3]; of 568 UVA-regulated genes) was 143 genes. For the same molecule, the “co-treatment-regulated genes not regulated by only UVA or β-carotene alone” value ([3]; of the 1142 genes) was 610 genes, the Bax gene regulation ([3]; unirradiated keratinocytes) was “upregulated” and the JUN-B gene regulation ([3]; unirradiated keratinocytes) was “downregulated”. For the same molecule, the VEGF gene regulation ([3]; unirradiated keratinocytes) was “mildly downregulated”, the “BMP2a; bone morphogenetic protein 2a (bmp-2a) (M22489) change factor” value [3, 9] was “downregulated” and the “BPAG1; bullous pemphigoid antigen (M69225) change factor” value [3, 9] was “decreased”. For the same molecule, the “BUB1; mitotic checkpoint kinase (AF053305) change factor” value [3, 9] was “downregulated”, the “COX-2, cyclooxygenase-2 (U04636) change factor” value [3, 9] was “mildly downregulated” and the “DNA ligase III (X84740) change factor” value [3, 9] was “downregulated”. The “EGFR; precursor of epidermal growth factor receptor (X00588) change factor” value [3, 9] was “downregulated”, the “ENDOGL-2 (AB020735) change factor” value [3, 9] was “upregulated” and the “FRA-2 (X16706) change factor” value [3, 9] was “downregulated”. For the same molecule, the “GEM (U10550) change factor” value [3, 9] was “downregulated”, the “HOXD4 (X59373) change factor” value [3, 9] was “downregulated” and the “ID-2H (D13891) change factor” value [3, 9] was “downregulated”. For the same molecule, the “IGF-BP 3; insulin-like growth factor-binding protein-3 gene (M35878) change factor” value [3, 9] was 0.22, the “IL6; Interleukin 6; IFNβα2a (X04430) change factor” value [3, 9] was “upregulated” and the “IL18; IGIF (IFNγ inducing factor) (D49950) change factor” value [3, 9] was “downregulated”. For the same molecule, the “IRF-9; p48; ISGF3γ; Interferon-stimulated transcription factor 3γ (M97935) change factor” value [3, 9] was −0.18, the “KRS-2; stress responsive serine/threonine protein kinase (U60207) change factor” value [3, 9] was “downregulated” and the “MMP10 (X07820) change factor” value [3, 9] was “reduced”. For the same molecule, the “NCF2; p67-phox; neutrophil oxidase factor (M32011) change factor” value [3, 9] was “downregulated”, the “NOTCH3 (U97669) change factor” value [3, 9] was “downregulated” and the “NRF2, subunit beta 1 (U13045) change factor” value [3, 9] was “downregulated”. For the same molecule, the “RETSDR1; retinal short-chain dehydrogenase/reductase (AF061741) change factor” value [3, 9] was “induced”, the “RPA; replication protein A 14kda subunit (rpa) (L07493) change factor” value [3, 9] was −0.04 and the “Requiem (AF001433) change factor” value [3, 9] was “upregulated”. For the same molecule, the “SMAD1 (U59423) change factor” value [3, 9] was −0.27, the “TIEG, EGRα (AF050110) change factor” value [3, 9] was “downregulated; also recorded: downregulation” and the “TLR3; toll-like receptor 3 (U88879) change factor” value [3, 9] was “upregulated”. For the same molecule, the “TRIP14; ′2-5′ oligoadenylate synthetase (AJ225089) change factor” value [3, 9] was −0.07, the “TSSC3/IPL (AF001294) change factor” value [3, 9] was “downregulation” and the “WNT5A (I20861) change factor” value [3, 9] was “downregulated”. For the same molecule, the “collagen type IV, α-5 (COL4A5) (M58526) change factor” value [3, 9] was “decreased”, the “integrin α6 (X53586) change factor” value [3, 9] was “decreased” and the “keratin 15 (J00124) change factor” value [3, 9] was “decreased”. For the same molecule, the “number of genes regulated by β-carotene” value ([3]; β-carotene alone, change factor ≧0.5 or ≦−0.5, p ≦0.05) was 381 genes, the UV-induced immune suppression ([4]; (Fuller, 1992)) was “prevents” and the “number of sunburn cells” value ([4]; β-carotene supplementation, humans (Garmyn, 1995)) was “did not alter”. The “sunburn erythema after sun exposure” value ([4]; β-carotene supplementation, literature studies) was “alleviates; also recorded: mild reduction; also recorded: mildly reduces”, the skin carcinogenesis [5] was “reduced” and the “β-carotene concentration in medium dropped to” value [6] was “approximately 50%”.

From patent publication US20070031356A1, “Beta-carotene modulation of gene expression” (priority 2005, published 2007)
